Results reported in patent US20060276464A1, “Diarylsulfone sulfonamides and use thereof” (Wyeth, priority 2005, published 2006).
Read-outs that look alike come from different tables or passages of the source.

Biological target: T1, SFRP-1 (Homo sapiens, UniProt Q8N474)
T1 sequence (Q8N474 32-314): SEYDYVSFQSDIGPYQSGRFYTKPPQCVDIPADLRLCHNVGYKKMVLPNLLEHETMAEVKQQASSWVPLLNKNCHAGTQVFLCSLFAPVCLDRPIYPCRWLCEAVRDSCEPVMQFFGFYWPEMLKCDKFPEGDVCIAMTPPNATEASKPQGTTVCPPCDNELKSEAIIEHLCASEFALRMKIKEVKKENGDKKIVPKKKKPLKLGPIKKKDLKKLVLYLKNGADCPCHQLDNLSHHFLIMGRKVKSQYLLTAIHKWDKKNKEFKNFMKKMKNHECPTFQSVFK
Experiment: Cell-based assay for in vitro measurement of SFRP-1/SARP2 antagonist activity (U2OS cells co-transfected with 16x TCF-tk-Luciferase reporter, Wnt and hSFRP-1);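 further: U2OS cells co-transfected with a TCF-tk luciferase reporter, a Wnt vector, hSFRP-1 or empty vector and CMV-βgal, luciferase luminescence read in cell lysates alongside βgal activity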
Conditions: for fold induction at 15 µM / fold induction at 30 µM: U2OS

[1] = read-out: Fold Induction with SFRP-1, Conc 15 μM, with SFRP-1, fold induction over SFRP-1 control, single dose
[2] = read-out: Fold Induction without SFRP-1, Conc 15 μM, without SFRP-1, single dose
[3] = read-out: Fold Induction with SFRP-1, Conc 30 μM, with SFRP-1, fold induction over SFRP-1 control, single dose
[4] = read-out: Fold Induction without SFRP-1, Conc 30 μM, without SFRP-1, single dose

Compound	fold induction at 15 µM [1]	fold induction at 15 µM [2]	fold induction at 30 µM [3]	fold induction at 30 µM [4]	further results
Cc1ccc(S(=O)(=O)c2ccc(F)cc2)cc1S(=O)(=O)NCCc1c[nH]cn1 [Example 167, 5-[(4-fluorophenyl)sulfonyl]-N-[2-(1H-imidazol-4-yl)ethyl]-2-methylbenzenesulfonamide]	3	1	–	–	–
CC(=O)NCCNS(=O)(=O)c1cc(S(=O)(=O)c2ccc(F)cc2)ccc1C [Example 168, N-{2-[({5-[(4-fluorophenyl)sulfonyl]-2-methylphenyl}sulfonyl)amino]ethyl}acetamide]	1.7	0.9	–	–	–
Cc1ccc(S(=O)(=O)c2ccc(F)cc2)cc1S(=O)(=O)NCCCN1CCCC1=O [Example 170, 5-[(4-fluorophenyl)sulfonyl]-2-methyl-N-[3-(2-oxopyrrolidin-1-yl)propyl]benzenesulfonamide]	2.3	0.9	–	–	–
CCN(CC)CCNS(=O)(=O)c1cc(S(=O)(=O)c2ccc(F)cc2)ccc1C [Example 171, N-[2-(diethylamino)ethyl]-5-[(4-fluorophenyl)sulfonyl]-2-methylbenzenesulfonamide]	2.2	1.2	–	–	–
Cc1ccc(S(=O)(=O)c2ccc(F)cc2)cc1S(=O)(=O)NCCN(C)C [Example 172, N-[2-(dimethylamino)ethyl]-5-[(4-fluorophenyl)sulfonyl]-2-methylbenzenesulfonamide]	1.9	1.1	–	–	–
COCCCNS(=O)(=O)c1cc(S(=O)(=O)c2ccc(F)cc2)ccc1C [Example 173, 5-[(4-fluorophenyl)sulfonyl]-N-(3-methoxypropyl)-2-methylbenzenesulfonamide]	2.5	0.8	–	–	Fold Induction with SFRP-1 (Conc 15 μM, with SFRP-1, fold induction over SFRP-1 control, single dose): 2 fold; Fold Induction without SFRP-1 (Conc 15 μM, without SFRP-1, single dose): 1 fold
Cc1ccc(S(=O)(=O)c2ccc(F)cc2)cc1S(=O)(=O)NCCCN(C)C [Example 174, N-[3-(dimethylamino)propyl]-5-[(4-fluorophenyl)sulfonyl]-2-methylbenzenesulfonamide]	2.8	1.2	–	–	–
COCCNS(=O)(=O)c1cc(S(=O)(=O)c2ccc(F)cc2)ccc1C [Example 175, 5-[(4-fluorophenyl)sulfonyl]-N-(2-methoxyethyl)-2-methylbenzenesulfonamide]	2.5	0.9	–	–	–
CCN(CC)CCCNS(=O)(=O)c1cc(S(=O)(=O)c2ccc(F)cc2)ccc1C [Example 176, N-[3-(diethylamino)propyl]-5-[(4-fluorophenyl)sulfonyl]-2-methylbenzenesulfonamide]	2.6	1.3	–	–	–
Cc1ccc(S(=O)(=O)c2ccc(F)cc2)cc1S(=O)(=O)NCCCN1CCCC1 [Example 178, 5-[(4-fluorophenyl)sulfonyl]-2-methyl-N-(3-pyrrolidin-1-ylpropyl)benzenesulfonamide]	2.8	1.5	–	–	–
Cc1ccc(S(=O)(=O)c2ccc(F)cc2)cc1S(=O)(=O)NCCCN1CCN(C)CC1 [Example 179, 5-[(4-fluorophenyl)sulfonyl]-2-methyl-N-[3-(4-methylpiperazin-1-yl)propyl]benzenesulfonamide]	2	1.1	–	–	–
Cc1ccc(S(=O)(=O)c2ccc(F)cc2)cc1S(=O)(=O)NCCC(=O)O [Example 180, N-({5-[(4-fluorophenyl)sulfonyl]-2-methylphenyl}sulfonyl)-beta-alanine]	1.2	1	–	–	–
NC(=O)CCNS(=O)(=O)c1cccc(S(=O)(=O)c2ccccc2)c1 [Example 181, N^3-{[3-(phenylsulfonyl)phenyl]sulfonyl}-beta-alaninamide]	–	–	0.6	1	–
COC(=O)CCNS(=O)(=O)c1cccc(S(=O)(=O)c2ccccc2)c1 [Example 182, methyl N-{[3-(phenylsulfonyl)phenyl]sulfonyl}-beta-alaninate]	–	–	1	1	–

Continued, in another order:

fold induction at 15 µM [1]	fold induction at 15 µM [2]	fold induction at 30 µM [3]	fold induction at 30 µM [4]	Compound	further results
–	–	1.3	1	N#CCCNS(=O)(=O)c1cccc(S(=O)(=O)c2ccccc2)c1 [Example 183, N-(2-cyanoethyl)-3-(phenylsulfonyl)benzenesulfonamide]	–
–	–	1.2	0.9	O=S(=O)(NCCc1ccccn1)c1cccc(S(=O)(=O)c2ccccc2)c1 [Example 184, 3-(phenylsulfonyl)-N-(2-pyridin-2-ylethyl)benzenesulfonamide]	–
–	–	1.3	1.1	O=S(=O)(NCCCN1CCOCC1)c1cccc(S(=O)(=O)c2ccccc2)c1 [Example 185, N-(3-morpholin-4-ylpropyl)-3-(phenylsulfonyl)benzenesulfonamide]	–
–	–	1.3	1.3	CN1CCCC1CCNS(=O)(=O)c1cccc(S(=O)(=O)c2ccccc2)c1 (stereo not drawn) [Example 186, N-[2-(1-methylpyrrolidin-2-yl)ethyl]-3-(phenylsulfonyl)benzenesulfonamide]	–
–	–	1.9	1	O=S(=O)(NCCc1ccncc1)c1cccc(S(=O)(=O)c2ccccc2)c1 [Example 187, 3-(phenylsulfonyl)-N-(2-pyridin-4-ylethyl)benzenesulfonamide]	–
–	–	1.4	1.4	O=S(=O)(NCCN1CCCCC1)c1cccc(S(=O)(=O)c2ccccc2)c1 [Example 188, 3-(phenylsulfonyl)-N-(2-piperidin-1-ylethyl)benzenesulfonamide]	–
–	–	1.3	1	O=S(=O)(NCCc1c[nH]cn1)c1cccc(S(=O)(=O)c2ccccc2)c1 [Example 189, N-[2-(1H-imidazol-4-yl)ethyl]-3-(phenylsulfonyl)benzenesulfonamide]	–
–	–	1.2	1	CC(=O)NCCNS(=O)(=O)c1cccc(S(=O)(=O)c2ccccc2)c1 [Example 190, N-[2-({[3-(phenylsulfonyl)phenyl]sulfonyl}amino)ethyl]acetamide]	–
–	–	1.2	1.2	O=S(=O)(NCCN1CCOCC1)c1cccc(S(=O)(=O)c2ccccc2)c1 [Example 191, N-(2-morpholin-4-ylethyl)-3-(phenylsulfonyl)benzenesulfonamide]	–
–	–	1.1	1.1	O=C1CCCN1CCCNS(=O)(=O)c1cccc(S(=O)(=O)c2ccccc2)c1 [Example 192, N-[3-(2-oxopyrrolidin-1-yl)propyl]-3-(phenylsulfonyl)benzenesulfonamide]	–
–	–	1.2	1.3	CCN(CC)CCNS(=O)(=O)c1cccc(S(=O)(=O)c2ccccc2)c1 [Example 193, N-[2-(diethylamino)ethyl]-3-(phenylsulfonyl)benzenesulfonamide]	–
–	–	1.3	1.2	CN(C)CCNS(=O)(=O)c1cccc(S(=O)(=O)c2ccccc2)c1 [Example 194, N-[2-(dimethylamino)ethyl]-3-(phenylsulfonyl)benzenesulfonamide]	–
–	–	1.2	0.9	COCCCNS(=O)(=O)c1cccc(S(=O)(=O)c2ccccc2)c1 [Example 195, N-(3-methoxypropyl)-3-(phenylsulfonyl)benzenesulfonamide]	–
–	–	1.4	1.3	CN(C)CCCNS(=O)(=O)c1cccc(S(=O)(=O)c2ccccc2)c1 [Example 196, N-[3-(dimethylamino)propyl]-3-(phenylsulfonyl)benzenesulfonamide]	–
–	–	1.1	1.2	COCCNS(=O)(=O)c1cccc(S(=O)(=O)c2ccccc2)c1 [Example 197, N-(2-methoxyethyl)-3-(phenylsulfonyl)benzenesulfonamide]	–
–	–	1.1	1.3	CCN(CC)CCCNS(=O)(=O)c1cccc(S(=O)(=O)c2ccccc2)c1 [Example 198, N-[3-(diethylamino)propyl]-3-(phenylsulfonyl)benzenesulfonamide]	–
–	–	1.1	1	O=S(=O)(NCCCn1ccnc1)c1cccc(S(=O)(=O)c2ccccc2)c1 [Example 199, N-[3-(1H-imidazol-1-yl)propyl]-3-(phenylsulfonyl)benzenesulfonamide]	–
–	–	1.4	1.8	O=S(=O)(NCCCN1CCCC1)c1cccc(S(=O)(=O)c2ccccc2)c1 [Example 200, 3-(phenylsulfonyl)-N-(3-pyrrolidin-1-ylpropyl)benzenesulfonamide]	–
–	–	1.1	1.2	CN1CCN(CCCNS(=O)(=O)c2cccc(S(=O)(=O)c3ccccc3)c2)CC1 [Example 201, N-[3-(4-methylpiperazin-1-yl)propyl]-3-(phenylsulfonyl)benzenesulfonamide]	–
–	–	1.1	1.2	O=C(O)CCNS(=O)(=O)c1cccc(S(=O)(=O)c2ccccc2)c1 [Example 202, N-{[3-(phenylsulfonyl)phenyl]sulfonyl)-beta-alanine]	–
2.5	1.3	–	–	Cc1ccc(S(=O)(=O)c2ccccc2)cc1S(=O)(=O)NCCC(N)=O [Example 203, N^3-{[2-methyl-5-(phenylsulfonyl)phenyl]sulfonyl}-beta-alaninamide]	–
